Reference: ChEMBL document CHEMBL1201862, “PubChem BioAssay data set” (2004)
Calls of active or inactive are those of the source. Rule as the data show it, for most assays here: actives have a measured IC50 and inactives only a lower limit.

Key:
Format in all cases: functional
Caspase-3 [1] = target: T1, Caspase-3 (Homo sapiens, UniProt P42574); experiment: SAR Analysis of small molecule inhibitors of Sentrin-specific proteases (SENPs) using a Caspase-3 Selectivity assay. [Related pubchem assays (depositor defined):AID2540, AID2599, AID434973, AID489001]
T1 sequence (P42574 whole entry): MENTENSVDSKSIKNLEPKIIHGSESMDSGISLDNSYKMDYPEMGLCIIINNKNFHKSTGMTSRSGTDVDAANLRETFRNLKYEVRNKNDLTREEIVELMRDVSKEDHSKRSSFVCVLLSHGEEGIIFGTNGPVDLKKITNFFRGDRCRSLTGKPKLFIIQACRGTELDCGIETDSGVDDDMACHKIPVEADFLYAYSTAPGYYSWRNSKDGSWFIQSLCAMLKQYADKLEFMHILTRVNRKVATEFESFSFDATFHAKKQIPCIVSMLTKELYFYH

[2] = target: T2, Sentrin-specific protease 8 (Homo sapiens, UniProt Q96LD8); experiment: inhibition of human SENP8 cleavage activity – biochemical, luminescence, SAR follow-up (AID 504501)
T2 sequence (Q96LD8 whole entry): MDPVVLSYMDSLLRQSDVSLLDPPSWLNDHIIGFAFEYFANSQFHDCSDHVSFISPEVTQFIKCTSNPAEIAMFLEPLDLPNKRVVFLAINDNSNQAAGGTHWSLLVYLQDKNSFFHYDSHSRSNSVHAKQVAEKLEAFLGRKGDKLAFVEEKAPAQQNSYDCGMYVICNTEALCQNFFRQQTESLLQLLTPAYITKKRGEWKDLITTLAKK

[3] = target: T3, Sentrin-specific protease 6 (Homo sapiens, UniProt Q9GZR1); experiment: SAR Analysis of small molecule inhibitors of Sentrin-specific protease 6 (SENP6) using a Luminescent assay. [Related pubchem assays (depositor defined):AID2582, AID2599]
T3 sequence (Q9GZR1 whole entry): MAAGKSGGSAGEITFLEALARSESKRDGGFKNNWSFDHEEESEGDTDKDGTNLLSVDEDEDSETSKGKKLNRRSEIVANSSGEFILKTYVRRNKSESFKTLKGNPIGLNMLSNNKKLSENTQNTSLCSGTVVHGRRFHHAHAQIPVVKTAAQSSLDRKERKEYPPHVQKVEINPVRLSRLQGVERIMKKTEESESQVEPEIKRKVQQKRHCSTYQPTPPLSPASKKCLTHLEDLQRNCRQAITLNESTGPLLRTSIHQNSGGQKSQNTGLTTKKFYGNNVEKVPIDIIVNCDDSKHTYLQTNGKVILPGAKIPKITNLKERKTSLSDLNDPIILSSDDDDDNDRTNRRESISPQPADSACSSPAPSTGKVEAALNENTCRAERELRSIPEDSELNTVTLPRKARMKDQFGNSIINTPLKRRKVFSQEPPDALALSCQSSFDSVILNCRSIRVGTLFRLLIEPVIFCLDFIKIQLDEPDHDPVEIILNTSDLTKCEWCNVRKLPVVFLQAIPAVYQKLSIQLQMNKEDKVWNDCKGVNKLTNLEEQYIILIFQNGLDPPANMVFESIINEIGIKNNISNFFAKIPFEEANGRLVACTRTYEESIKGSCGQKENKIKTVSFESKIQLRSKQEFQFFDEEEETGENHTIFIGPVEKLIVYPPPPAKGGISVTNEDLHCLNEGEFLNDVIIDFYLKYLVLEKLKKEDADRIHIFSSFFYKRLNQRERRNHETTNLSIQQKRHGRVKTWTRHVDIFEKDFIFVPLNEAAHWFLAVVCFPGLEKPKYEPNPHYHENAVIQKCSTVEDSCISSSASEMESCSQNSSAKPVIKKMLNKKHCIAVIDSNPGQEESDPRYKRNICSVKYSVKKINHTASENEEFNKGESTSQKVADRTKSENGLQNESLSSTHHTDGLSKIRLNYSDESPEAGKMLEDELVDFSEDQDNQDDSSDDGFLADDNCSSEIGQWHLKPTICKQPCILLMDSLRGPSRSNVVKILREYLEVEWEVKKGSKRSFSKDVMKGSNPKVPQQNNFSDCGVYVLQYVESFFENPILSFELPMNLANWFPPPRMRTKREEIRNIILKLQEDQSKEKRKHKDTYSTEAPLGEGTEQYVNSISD

[4] = target: T4, Sentrin-specific protease 7 (Homo sapiens, UniProt Q9BQF6); experiment: inhibition of human SENP7 cleavage activity – biochemical, luminescence, SAR follow-up (AID 504497)
T4 sequence (Q9BQF6 whole entry): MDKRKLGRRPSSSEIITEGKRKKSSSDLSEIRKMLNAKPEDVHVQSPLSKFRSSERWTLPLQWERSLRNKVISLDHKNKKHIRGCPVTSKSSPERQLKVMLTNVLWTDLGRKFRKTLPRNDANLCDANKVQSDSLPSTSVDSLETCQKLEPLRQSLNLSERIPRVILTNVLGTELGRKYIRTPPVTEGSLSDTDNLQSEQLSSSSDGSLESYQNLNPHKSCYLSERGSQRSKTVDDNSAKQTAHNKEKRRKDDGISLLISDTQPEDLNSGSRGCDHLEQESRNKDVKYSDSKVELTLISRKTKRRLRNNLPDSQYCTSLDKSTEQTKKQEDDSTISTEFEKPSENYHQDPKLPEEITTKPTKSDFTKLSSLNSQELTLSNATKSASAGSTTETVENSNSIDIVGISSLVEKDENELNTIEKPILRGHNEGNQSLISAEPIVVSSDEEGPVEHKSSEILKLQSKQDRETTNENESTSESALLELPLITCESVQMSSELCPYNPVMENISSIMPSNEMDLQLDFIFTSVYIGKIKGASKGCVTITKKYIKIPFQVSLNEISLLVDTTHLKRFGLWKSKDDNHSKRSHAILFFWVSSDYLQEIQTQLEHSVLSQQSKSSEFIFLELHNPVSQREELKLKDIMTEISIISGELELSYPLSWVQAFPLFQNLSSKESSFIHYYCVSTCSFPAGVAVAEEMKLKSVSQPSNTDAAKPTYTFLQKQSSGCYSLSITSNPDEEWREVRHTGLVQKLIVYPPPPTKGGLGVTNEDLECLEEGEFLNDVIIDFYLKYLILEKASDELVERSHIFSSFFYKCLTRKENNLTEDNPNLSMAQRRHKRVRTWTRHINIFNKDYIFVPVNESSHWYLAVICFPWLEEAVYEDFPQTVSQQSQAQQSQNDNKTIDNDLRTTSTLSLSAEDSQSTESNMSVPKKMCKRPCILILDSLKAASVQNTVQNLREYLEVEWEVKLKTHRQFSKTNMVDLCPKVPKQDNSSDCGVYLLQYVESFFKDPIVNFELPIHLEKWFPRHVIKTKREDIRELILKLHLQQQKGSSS

[5] = target: T3, Sentrin-specific protease 6
Caspase-3 [6] = target: T1, Caspase-3
[7] = Luminescence Cell-Based Dose Confirmation HTS to Identify Activators of 5'UTR Stem-Loop Driven Alpha-Synuclein mRNA Translation in H4 Neuroglioblastoma Cells. [Related pubchem assays: 1829 (Project Summary), 1814 (Primary HTS)]
[8] = target: T2, Sentrin-specific protease 8
H4 = experiment: Luminescence Cell-Based Dose Response HTS to Identify Activators of 5'UTR Stem-Loop Driven Prion Protein mRNA Translation in H4 Neuroglioblastoma Cells. [Related pubchem assays: 1829 (Project Summary), 1814 (Primary HTS)]; conditions: Homo sapiens
[9] = target: T4, Sentrin-specific protease 7
[10] = target: T5, High affinity choline transporter 1 (Homo sapiens, UniProt Q9GZV3); experiment: human choline transporter blockers, potency – cell-based, 5-point CRC, membrane potential dye, dose response (AID 504840)
T5 sequence (Q9GZV3 whole entry): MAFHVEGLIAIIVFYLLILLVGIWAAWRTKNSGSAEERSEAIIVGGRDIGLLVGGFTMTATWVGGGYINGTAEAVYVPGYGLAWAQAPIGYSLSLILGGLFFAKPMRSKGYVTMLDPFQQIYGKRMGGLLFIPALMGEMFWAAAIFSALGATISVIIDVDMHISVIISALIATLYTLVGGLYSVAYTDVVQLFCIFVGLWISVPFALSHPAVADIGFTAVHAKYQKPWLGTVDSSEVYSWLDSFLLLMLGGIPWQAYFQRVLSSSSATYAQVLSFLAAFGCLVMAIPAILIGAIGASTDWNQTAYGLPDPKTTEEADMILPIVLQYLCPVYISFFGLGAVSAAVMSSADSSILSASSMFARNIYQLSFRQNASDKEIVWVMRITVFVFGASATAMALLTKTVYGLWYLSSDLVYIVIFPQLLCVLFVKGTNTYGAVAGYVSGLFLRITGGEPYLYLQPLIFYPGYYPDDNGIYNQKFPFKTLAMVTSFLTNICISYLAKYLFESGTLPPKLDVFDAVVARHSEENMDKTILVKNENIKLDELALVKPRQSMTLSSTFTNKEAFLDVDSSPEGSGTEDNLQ

[11] = target: T5, High affinity choline transporter 1; experiment: human choline transporter blockers, potency – cell-based, 10-point CRC, membrane potential dye, dose response (AID 588401);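 also: membrane potential dye fluorescence of choline-evoked depolarization via CHT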
Phospholipase A2 = Phospholipase A2 (Homo sapiens, UniProt P04054);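 also: confirmatory dose-response counterscreen on phospholipase A2, testing hits that came from an ultra-high-throughput screen for ATG4B inhibitors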
Cysteine protease ATG4B = target: T6, Cysteine protease ATG4B (Homo sapiens, UniProt Q9Y4P1);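 also: Fluorescence-based dose-response confirmation assay measuring inhibition of ATG4B activity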
T6 sequence (Q9Y4P1 whole entry): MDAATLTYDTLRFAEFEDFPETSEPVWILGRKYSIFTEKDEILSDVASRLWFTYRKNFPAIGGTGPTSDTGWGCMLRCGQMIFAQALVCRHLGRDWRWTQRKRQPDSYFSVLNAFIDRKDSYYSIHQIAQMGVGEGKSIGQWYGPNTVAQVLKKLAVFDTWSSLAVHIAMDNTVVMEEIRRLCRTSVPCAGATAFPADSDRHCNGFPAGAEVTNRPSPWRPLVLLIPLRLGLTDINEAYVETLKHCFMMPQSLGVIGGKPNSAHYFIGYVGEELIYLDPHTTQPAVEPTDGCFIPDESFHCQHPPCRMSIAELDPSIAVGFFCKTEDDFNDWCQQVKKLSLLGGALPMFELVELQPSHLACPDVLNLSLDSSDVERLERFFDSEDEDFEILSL

[12] = target: T7, Carboxy-terminal domain RNA polymerase II polypeptide A small phosphatase 1 (Homo sapiens, UniProt Q9GZU7); experiment: CTDSP1 inhibitors, concentration-response, biochemical, absorbance readout, ultra-high-throughput screen actives (AID 540297)
T7 sequence (Q9GZU7 whole entry): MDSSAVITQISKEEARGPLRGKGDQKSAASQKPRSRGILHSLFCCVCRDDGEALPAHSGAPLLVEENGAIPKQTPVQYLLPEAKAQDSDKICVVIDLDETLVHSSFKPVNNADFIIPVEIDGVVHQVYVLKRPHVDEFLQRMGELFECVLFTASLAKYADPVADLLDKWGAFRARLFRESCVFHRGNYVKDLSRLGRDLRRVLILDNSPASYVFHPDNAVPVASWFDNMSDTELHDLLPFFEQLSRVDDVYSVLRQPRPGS

Leucine aminopeptidase = target: T8, Leucine aminopeptidase (Plasmodium falciparum 3D7, UniProt Q8IL11); experiment: P. falciparum M17LAP inhibitors, primary screen, biochemical, fluorogenic H-Leu-NHMec substrate, 1536-well (AID 1619)
T8 sequence (Q8IL11 whole entry): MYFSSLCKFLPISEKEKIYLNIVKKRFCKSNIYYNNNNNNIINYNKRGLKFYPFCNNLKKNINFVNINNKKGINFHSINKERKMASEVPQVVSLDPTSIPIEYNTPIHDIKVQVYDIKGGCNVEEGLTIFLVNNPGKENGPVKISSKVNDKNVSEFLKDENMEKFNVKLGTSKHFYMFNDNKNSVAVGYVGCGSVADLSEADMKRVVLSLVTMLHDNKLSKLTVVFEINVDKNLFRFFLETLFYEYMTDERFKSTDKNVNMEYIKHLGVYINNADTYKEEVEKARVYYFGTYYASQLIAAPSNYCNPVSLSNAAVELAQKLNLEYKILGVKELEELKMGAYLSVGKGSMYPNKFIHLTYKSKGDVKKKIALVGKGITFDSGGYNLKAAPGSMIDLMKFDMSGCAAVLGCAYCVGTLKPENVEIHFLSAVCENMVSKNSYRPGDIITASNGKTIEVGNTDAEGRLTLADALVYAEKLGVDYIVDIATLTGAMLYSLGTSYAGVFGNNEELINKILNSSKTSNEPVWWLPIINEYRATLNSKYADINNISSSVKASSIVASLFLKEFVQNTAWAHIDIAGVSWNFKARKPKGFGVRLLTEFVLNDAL

Sequence of Phospholipase A2 (P04054 whole entry): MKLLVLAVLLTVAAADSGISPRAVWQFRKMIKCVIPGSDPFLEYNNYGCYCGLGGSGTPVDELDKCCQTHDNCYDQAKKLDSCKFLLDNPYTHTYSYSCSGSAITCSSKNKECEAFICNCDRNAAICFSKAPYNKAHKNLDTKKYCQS

Structure (SMILES)	IC50 (Caspase-3 [1])	IC50 [2]	IC50 [3]	IC50 [4]	IC50 [10]	IC50 [11]	also measured
C(=N\Nc1ccccc1)/c1c[nH]c2ccccc12	> 99 µM (inactive)	> 99 µM (inactive)	> 99 µM (inactive)	25.7 µM (active)	–	–	–
O=C(O)c1ccc(N/N=C/c2cn(Cc3ccc(F)cc3)c3ccccc23)cc1	49.8 µM (active)	6.77 µM (active)	6.8 µM (active)	5.08 µM (active)	–	–	IC50 [5]: 7.91 µM (active); IC50 (Caspase-3 [6]): 89.1 µM (active); EC50 [7]: > 120 µM (not active); IC50 [8]: 12.4 µM (active); EC50 (H4): > 120 µM (not active); IC50 [9]: 8.78 µM (active)
O=C(COc1ccccc1Br)c1ccc(O)cc1O	–	–	–	–	2.29 µM (active)	11.2 µM (active)	–
CCOC(=O)c1ccc(/C=C2/C=C(c3ccccc3)N(c3ccc(Cl)c(C(=O)O)c3)C2=O)cc1	–	–	–	–	–	–	IC50 (Phospholipase A2): 8.04 µM (active); IC50 (Cysteine protease ATG4B): 12.3 µM (active); IC50 [12]: 5.15 µM (active); IC50 (Leucine aminopeptidase): 29.5 µM (active)
CC(C)(C)NCC(O)Cn1cc(C=O)c2ccccc21 (configuration not stated)	–	–	–	–	0.738 µM (active)	0.113 µM (active)	–
